# According to paper PMC12143796, “Virtual screening of a random tripeptide library for easily prepared inhibitors of insect chitinolytic enzymes” (The Cell Surface, 2025):
# Residues, ends and D or L forms follow the SMILES beside them.
# Experiments:
# Format in all cases: biochemical
# OfChtI = target: T1, OfChtI (Ostrinia furnacalis, UniProt Q2V6H4); assay: fluorescence assay of released 4-methylumbelliferone; conditions: read-out: % inhibition at 1 mM
# T1 construct: PDB id is that of the docking structure
# OfHex1 [1] = target: T2, OfHex1 (Ostrinia furnacalis, UniProt Q06GJ0); assay: as above; conditions: read-out: % inhibition at 1 mM
# T2 construct: PDB id is that of the docking structure
# T2 sequence (Q06GJ0 23-594): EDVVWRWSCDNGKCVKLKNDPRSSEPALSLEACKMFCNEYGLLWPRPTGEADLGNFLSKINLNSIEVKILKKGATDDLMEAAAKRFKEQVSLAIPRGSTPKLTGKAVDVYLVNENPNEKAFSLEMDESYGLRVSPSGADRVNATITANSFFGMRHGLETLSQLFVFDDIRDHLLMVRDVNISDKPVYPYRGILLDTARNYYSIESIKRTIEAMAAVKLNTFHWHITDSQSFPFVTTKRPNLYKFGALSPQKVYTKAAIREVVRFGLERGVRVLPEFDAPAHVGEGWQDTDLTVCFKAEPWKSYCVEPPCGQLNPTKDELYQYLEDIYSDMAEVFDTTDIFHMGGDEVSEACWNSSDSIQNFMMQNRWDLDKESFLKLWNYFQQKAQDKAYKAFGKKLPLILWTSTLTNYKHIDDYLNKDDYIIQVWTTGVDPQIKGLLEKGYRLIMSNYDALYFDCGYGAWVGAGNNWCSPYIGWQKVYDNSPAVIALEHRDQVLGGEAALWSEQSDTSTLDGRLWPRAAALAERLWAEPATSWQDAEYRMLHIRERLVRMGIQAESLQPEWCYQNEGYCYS
# OfChi-h = target: T3, OfChi-h (Ostrinia furnacalis, UniProt Q4AE59); assay: as above; conditions: read-out: % inhibition at 1 mM
# T3 construct: PDB id is that of the docking structure
# OfHex1 [2] = target: T2, OfHex1; assay: fluorescence of released 4-methylumbelliferone; conditions: 10 μM substrate, 20 mM sodium phosphate pH 6.0, 30 °C, 30 min
# T1 sequence (Q2V6H4 19-407): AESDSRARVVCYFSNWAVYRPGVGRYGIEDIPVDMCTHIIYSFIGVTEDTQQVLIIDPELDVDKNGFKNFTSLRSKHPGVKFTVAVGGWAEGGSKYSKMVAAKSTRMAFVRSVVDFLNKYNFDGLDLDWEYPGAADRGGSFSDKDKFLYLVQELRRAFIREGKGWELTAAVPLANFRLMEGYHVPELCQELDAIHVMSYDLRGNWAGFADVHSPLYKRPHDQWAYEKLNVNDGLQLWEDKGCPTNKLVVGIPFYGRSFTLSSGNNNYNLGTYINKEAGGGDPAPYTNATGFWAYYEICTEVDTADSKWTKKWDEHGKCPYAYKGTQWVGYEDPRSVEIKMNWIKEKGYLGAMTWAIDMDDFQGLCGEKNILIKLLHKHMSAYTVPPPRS
# T3 sequence (Q4AE59 18-553): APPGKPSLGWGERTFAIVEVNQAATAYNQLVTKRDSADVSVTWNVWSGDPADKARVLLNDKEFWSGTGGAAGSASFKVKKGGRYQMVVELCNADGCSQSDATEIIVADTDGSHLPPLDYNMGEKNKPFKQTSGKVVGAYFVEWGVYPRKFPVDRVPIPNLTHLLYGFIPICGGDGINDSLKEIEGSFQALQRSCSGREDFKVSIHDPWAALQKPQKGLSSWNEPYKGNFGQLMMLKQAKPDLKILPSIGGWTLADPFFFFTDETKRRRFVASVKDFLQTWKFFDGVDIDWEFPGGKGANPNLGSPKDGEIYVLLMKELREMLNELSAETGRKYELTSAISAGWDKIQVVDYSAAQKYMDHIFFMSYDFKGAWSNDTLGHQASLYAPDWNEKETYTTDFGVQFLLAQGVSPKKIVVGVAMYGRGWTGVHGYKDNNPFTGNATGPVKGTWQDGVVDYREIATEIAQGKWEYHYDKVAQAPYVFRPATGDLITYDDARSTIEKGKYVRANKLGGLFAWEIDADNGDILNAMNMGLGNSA
fluorescence of released 4-methylumbelliferone (OfHex1 [2]),Structure (SMILES),inhibition at 1000 µM (OfChtI) [%],inhibition at 1000 µM (OfHex1 [1]) [%],inhibition at 1000 µM (OfChi-h) [%]
,NC(=O)CC[C@H](N)C(=O)N[C@@H](Cc1c[nH]c2ccccc12)C(=O)N[C@@H](Cc1c[nH]c2ccccc12)C(=O)O [QWW] (H-Gln-Trp-Trp-OH),55.3,,
,N[C@@H](Cc1ccc(O)cc1)C(=O)N[C@@H](Cc1ccccc1)C(=O)N1CCC[C@H]1C(=O)O [YFP] (H-Tyr-Phe-Pro-OH),< 50,< 50,14.8
,N[C@@H](Cc1ccccc1)C(=O)N1CCC[C@H]1C(=O)N[C@@H](Cc1ccc(O)cc1)C(=O)O [FPY] (H-Phe-Pro-Tyr-OH),< 50,< 50,
the substrate for OfHex1 was MU-GlcNAc,CC(=O)N[C@H]1[C@H](Oc2ccc3c(C)cc(=O)oc3c2)O[C@H](CO)[C@@H](O)[C@@H]1O [MU-GlcNAc],,,
